Assay: Chemical stability of liposomal BPD-MA: potency, degradation products and pH of the reconstituted solution on storage
Format: physicochemical
Details: cryodesiccated liposome formulation
Description: The chemical stability of the constituted dosage form was followed by monitoring the potency, degradation products and pH of the reconstituted solution. The potency of the reconstituted parenteral dosage form was assessed by chromatography with potency calculated on as is basis.

In the case of “benzoporphyrin derivative monoacid [BPD-MA]”, the projected shelf life is reported as “at least two years” and the “period over which potency was maintained” value (room temperature) is reported as “at least nine months”.
